Data as given in ChEMBL document CHEMBL1131365, “Identification and SAR for a selective, nonpeptidyl thrombin inhibitor” (Bioorg Med Chem Lett, 1998).

Tests used:
[1] = biological target: Prothrombin (Homo sapiens, UniProt P00734); assay: Compound was evaluated for its inhibitory activity against human thrombin
[2] = biological target: Serine protease 1 (Homo sapiens, UniProt P07477); assay: Compound was evaluated for its inhibitory activity against trypsin
Serine protease 1, sequence (P07477 whole entry): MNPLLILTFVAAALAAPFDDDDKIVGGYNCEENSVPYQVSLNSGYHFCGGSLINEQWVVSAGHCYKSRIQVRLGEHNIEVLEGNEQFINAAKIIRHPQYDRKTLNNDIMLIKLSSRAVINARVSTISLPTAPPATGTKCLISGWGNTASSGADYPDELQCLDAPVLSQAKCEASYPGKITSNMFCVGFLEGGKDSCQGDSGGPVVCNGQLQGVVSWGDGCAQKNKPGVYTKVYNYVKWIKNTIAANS

Compound	Ki [1]	Ki [2]
c1ccc(COc2ccc(C[n+]3ccccc3)cc2)cc1	> 500 µM	
Nc1cc[n+](Cc2ccc(OC(CCc3ccccc3)c3ccccc3)cc2)cc1 (stereo unspecified)	0.16 µM	16 µM
c1ccc(C(Oc2ccc(CNc3ccncc3)cc2)c2ccccc2)cc1	1.3 µM	77 µM
Nc1cc[n+](Cc2ccc(OCc3ccccc3)cc2)cc1	0.7 µM	77 µM
c1ccc(COc2ccc(CNc3ccncc3)cc2)cc1	4.7 µM	233 µM
NC1CCN(Cc2ccc(OCc3ccccc3)cc2)CC1	581 µM	

Second part, the molecule after the results:

Ki [1]	Ki [2]	Compound
0.058 µM	517 µM	Nc1cc[n+](Cc2ccc(OC(c3ccccc3)c3ccccc3)cc2)cc1
7.9 µM	568 µM	c1ccc(COc2ccc(CCNc3ccncc3)cc2)cc1
> 10 µM	> 10 µM	Nc1ccc(Cc2ccc(OCc3ccccc3)cc2)cc1
